Source: US11845759B2, “Opioid compounds and uses thereof” (priority 2018, dated 2023)

Legend:
[1] = Hydrolysis in human blood serum at 37° C.; settings: for 6-OAc-Oxy (%): 6-OAc-Oxy in human blood serum, 37° C.
[2] = target: T1, μ-opioid receptor (Homo sapiens (Human), UniProt P35372); format: binding
[3] = Hydrolysis in simulated intestinal fluid at 37° C.; settings: for 6-OAc-Oxy (%): 6-OAc-Oxy in simulated intestinal fluid, 37° C.
[4] = Hydrolysis in simulated gastric fluid at 37° C.; settings: 6-OAc-Oxy in simulated Gastric fluid
[5] = Hydrolysis in pH buffer/EtOH solutions; format: physicochemical; settings: 6-OAc-Oxy
[6] = Hydrolysis in HCl solutions; format: physicochemical; settings: 6-OAc-Oxy
[7] = target: T1, μ-opioid receptor; test: [35S]GTPγS μ-opioid receptor functional assay; format: biochemical
[8] = pH = 7 buffer (1:1 EtOH:H2O), 0 hrs
[9] = pH = 7 buffer (1:1 EtOH:H2O), 0.5 hrs
[10] = pH = 7 buffer (1:1 EtOH:H2O), 2 hrs
[11] = pH = 7 buffer (1:1 EtOH:H2O), 26 hrs
[12] = pH = 8 buffer (1:1 EtOH:H2O), 0 hrs
[13] = pH = 8 buffer (1:1 EtOH:H2O), 0.5 hrs
[14] = pH = 8 buffer (1:1 EtOH:H2O), 2 hrs
[15] = pH = 8 buffer (1:1 EtOH:H2O), 26 hrs
[16] = pH = 9 buffer (1:1 EtOH:H2O), 0 hrs
[17] = pH = 9 buffer (1:1 EtOH:H2O), 0.5 hrs
[18] = pH = 9 buffer (1:1 EtOH:H2O), 4 hrs
[19] = pH = 9 buffer (1:1 EtOH:H2O), 8 hrs
[20] = pH = 9 buffer (1:1 EtOH:H2O), 22 hrs
[21] = pH = 10 buffer (1:1 EtOH:H2O), 0 hrs
[22] = pH = 10 buffer (1:1 EtOH:H2O), 0.5 hrs
[23] = pH = 10 buffer (1:1 EtOH:H2O), 2 hrs
[24] = pH = 10 buffer (1:1 EtOH:H2O), 4 hrs
[25] = pH = 11 buffer (1:1 EtOH:H2O), 0 hrs
[26] = pH = 11 buffer (1:1 EtOH:H2O), 0.5 hrs

COc1ccc2c3c1OC1C(OC(C)=O)=CC[C@@]4(O)[C@@H](C2)N(C)CC[C@]314 (some centres unmarked) [6-acetyl oxycodone]
6-OAc-Oxy (%) ([1]; 0 hrs): 89.4% | 6-OAc-Oxy (%) ([1]; 0.083 hrs (5 min)): 0.65% | 6-OAc-Oxy (%) ([1]; 0.5 hrs): 0.39% | hydrolysis in human blood serum (in words) ([1]; human blood serum (37° C.)): hydrolyzed quickly | hydrolysis to oxycodone (in words) ([1]; human blood serum (37° C.), five minutes): mostly hydrolyzed to oxycodone | Ki [2]: 41 nM | Ki compared with that of oxycodone (in words) [2]: comparable | 6-OAc-Oxy (%) ([3]; 0 hrs): 89.4% | 6-OAc-Oxy (%) ([3]; 0.5 hrs): 39.8% | 6-OAc-Oxy (%) ([3]; 2 hrs): 0.7% | 6-OAc-Oxy (%) ([3]; 4 hrs): 0.0% | time to hydrolyze releasing oxycodone ([3]; mixture in simulated intestinal fluid (37° C., pH 6.8, pancreatine)): less than 2 hours | 6-OAc-Oxy (%) ([4]; 0 hrs): 89.4% | 6-OAc-Oxy (%) ([4]; 2 hrs): 68.4% | 6-OAc-Oxy (%) ([4]; 4 hrs): 66.1% | 6-OAc-Oxy (%) ([4]; 8 hrs): 58.1% | 6-OAc-Oxy (%) ([4]; 24 hrs): 46.2% | 6-OAc-Oxy (%) [5, 8]: 89.4% | Oxy (%) [5, 8]: 9.4% | 6-OAc-Oxy (%) [5, 9]: 87.2% | Oxy (%) [5, 9]: 9.5% | 6-OAc-Oxy (%) [5, 10]: 87.9% | Oxy (%) [5, 10]: 8.2% | 6-OAc-Oxy (%) [5, 11]: 77.9% | Oxy (%) [5, 11]: 12.9% | 6-OAc-Oxy (%) [5, 12]: 89.4% | Oxy (%) [5, 12]: 9.4% | 6-OAc-Oxy (%) [5, 13]: 87.4% | Oxy (%) [5, 13]: 10.4% | 6-OAc-Oxy (%) [5, 14]: 87.0% | Oxy (%) [5, 14]: 8.8% | 6-OAc-Oxy (%) [5, 15]: 75.3% | Oxy (%) [5, 15]: 20.9% | 6-OAc-Oxy (%) [5, 16]: 89.4% | Oxy (%) [5, 16]: 9.0% | 6-OAc-Oxy (%) [5, 17]: 89.4% | Oxy (%) [5, 17]: 9.0% | 6-OAc-Oxy (%) [5, 18]: 86.3% | Oxy (%) [5, 18]: 11.9% | 6-OAc-Oxy (%) [5, 19]: 75.5% | Oxy (%) [5, 19]: 14.9% | 6-OAc-Oxy (%) [5, 20]: 66.5% | Oxy (%) [5, 20]: 26.9% | 6-OAc-Oxy (%) [5, 21]: 89.4% | Oxy (%) [5, 21]: 9.0% | 6-OAc-Oxy (%) [5, 22]: 32.3% | Oxy (%) [5, 22]: 65.2% | 6-OAc-Oxy (%) [5, 23]: 1.6% | Oxy (%) [5, 23]: 96.8% | 6-OAc-Oxy (%) [5, 24]: 1.2% | Oxy (%) [5, 24]: 98.3% | 6-OAc-Oxy (%) [5, 25]: 89.4% | Oxy (%) [5, 25]: 9.0% | 6-OAc-Oxy (%) [5, 26]: 1.6% | Oxy (%) [5, 26]: 97.1% | 6-OAc-Oxy (%) ([6]; 0.1N HCl solution, 0 hrs): 89.4% | 6-OAc-Oxy (%) ([6]; 0.1N HCl solution, 0.5 hrs): 89.0% | Oxy (%) ([6]; 0.1N HCl solution, 0.5 hrs): 6.43% | 6-OAc-Oxy (%) ([6]; 0.1N HCl solution, 2 hrs): 86.4% | Oxy (%) ([6]; 0.1N HCl solution, 2 hrs): 7.8% | 6-OAc-Oxy (%) ([6]; 0.1N HCl solution, 8 hrs): 86.1% | Oxy (%) ([6]; 0.1N HCl solution, 8 hrs): 9.5% | 6-OAc-Oxy (%) ([6]; 0.1N HCl solution, 24 hrs): 67.3% | Oxy (%) ([6]; 0.1N HCl solution, 24 hrs): 30.1% | 6-OAc-Oxy (%) ([6]; 1N HCl solution, 0 hrs): 89.4% | 6-OAc-Oxy (%) ([6]; 1N HCl solution, 0.5 hrs): 81.5% | Oxy (%) ([6]; 1N HCl solution, 0.5 hrs): 16.6% | 6-OAc-Oxy (%) ([6]; 1N HCl solution, 2 hrs): 61.0% | Oxy (%) ([6]; 1N HCl solution, 2 hrs): 30.3% | 6-OAc-Oxy (%) ([6]; 1N HCl solution, 4 hrs): 42.0% | Oxy (%) ([6]; 1N HCl solution, 4 hrs): 56.4% | 6-OAc-Oxy (%) ([6]; 1N HCl solution, 8 hrs): 18.2% | Oxy (%) ([6]; 1N HCl solution, 8 hrs): 80.8% | 6-OAc-Oxy (%) ([6]; 1N HCl solution, 24 hrs): 1.7% | Oxy (%) ([6]; 1N HCl solution, 24 hrs): 95.3% | EC50 [7]: 1690 nM | % Response Agonist ([7]; Conc. 3 μM, criteria ≥± 50%): 62%
